# Results published in ChEMBL document CHEMBL1201862, “PubChem BioAssay data set” (2004).
#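 Results reflect a 48-hour exposure of cells in 96-well plates to compound at five concentrations. Abbreviation: GI50, concentration required for 50% inhibition of growth.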 The source made the active and inactive calls. Cut-off read from the data, not from the text of the source: active = GI50 up to about 1.1 µM and inactive = higher.
# Columns and labels:
# Test in all cases: inhibition of tumour cell growth, NCI panel, 48 h
# A549 = system: A549
# SF-539 = system: SF-539
# MCF7 = system: MCF7
# NCI/ADR-RES = system: NCI/ADR-RES
# DU-145 = system: DU-145
# SNB-75 = system: SNB-75
# CCRF-CEM = system: CCRF-CEM
# KM12 = system: KM12
# SF-268 = system: SF-268
# CAKI-1 = system: CAKI-1
# MDA-MB-231 = system: MDA-MB-231
# NCI-H460 = system: NCI-H460
# U-251 = system: U-251
# RPMI-8226 = system: RPMI-8226
# MDA-N = system: MDA-N
# HL-60 = system: HL-60
# A498 = system: A498
# RXF 393 = system: RXF 393
# NCI-H226 = system: NCI-H226
# M14 = system: M14
SMILES,GI50 (A549),GI50 (SF-539),GI50 (MCF7),GI50 (NCI/ADR-RES),GI50 (DU-145),GI50 (SNB-75),GI50 (CCRF-CEM),GI50 (KM12),GI50 (SF-268),GI50 (CAKI-1),GI50 (MDA-MB-231),GI50 (NCI-H460),GI50 (U-251),GI50 (RPMI-8226),GI50 (MDA-N),GI50 (HL-60),GI50 (A498),GI50 (RXF 393),GI50 (NCI-H226),GI50 (M14)
CC(C(=O)O)C(C)(O)C(=O)O (stereo not given),> 100 µM (inactive),> 100 µM (inactive),> 100 µM (inactive),> 100 µM (inactive),> 100 µM (inactive),> 100 µM (inactive),> 100 µM (inactive),> 100 µM (inactive),> 100 µM (inactive),> 100 µM (inactive),> 100 µM (inactive),> 100 µM (inactive),> 100 µM (inactive),> 100 µM (inactive),> 100 µM (inactive),> 100 µM (inactive),> 100 µM (inactive),> 100 µM (inactive),> 100 µM (inactive),> 100 µM (inactive)
CC1OC(O[C@@H]2OC=C(C=O)[C@@]3(O)CC[C@H](C)[C@@H]23)C(O)C(O)C1O (stereo not given in full),> 100 µM (inactive),> 100 µM (inactive),> 100 µM (inactive),> 100 µM (inactive),> 100 µM (inactive),> 100 µM (inactive),> 100 µM (inactive),> 100 µM (inactive),> 100 µM (inactive),> 100 µM (inactive),> 100 µM (inactive),> 100 µM (inactive),> 100 µM (inactive),> 100 µM (inactive),> 100 µM (inactive),> 100 µM (inactive),> 100 µM (inactive),> 100 µM (inactive),> 100 µM (inactive),> 100 µM (inactive)
CC(=O)OC(Cc1ccc2ccccc2n1)(C(F)(F)F)C(F)(F)F,9.53 µM (inactive),2.32 µM (inactive),0.063 µM (active),1.72 µM (inactive),3.31 µM (inactive),4.36 µM (inactive),0.0728 µM (active),4.7 µM (inactive),2.17 µM (inactive),0.802 µM (active),1.28 µM (inactive),6 µM (inactive),5.74 µM (inactive),0.0272 µM (active),1.17 µM (inactive),0.0205 µM (active),1.95 µM (inactive),0.675 µM (active),1.76 µM (inactive),1.23 µM (inactive)
Cc1c(C)c(CC(=O)N2CC2)c(C)c(C)c1CC(=O)N1CC1,7.28 µM (inactive),3.52 µM (inactive),3.22 µM (inactive),11 µM (inactive),2.1 µM (inactive),6.73 µM (inactive),1.15 µM (inactive),17.1 µM (inactive),2.41 µM (inactive),2.12 µM (inactive),19.2 µM (inactive),0.337 µM (active),5.56 µM (inactive),10.6 µM (inactive),13.8 µM (inactive),0.705 µM (active),16 µM (inactive),3.61 µM (inactive),15.5 µM (inactive),5.25 µM (inactive)
COc1c(OC(C)=O)c(OC(C)=O)cc2c1-c1ccc(SC)c(=O)cc1C(NC(C)=O)CC2 (stereo not given),4.19 µM (inactive),0.254 µM (active),0.124 µM (active),> 76.6 µM (inactive),0.583 µM (active),0.299 µM (active),0.384 µM (active),0.504 µM (active),0.472 µM (active),6.89 µM (inactive),0.512 µM (active),2.9 µM (inactive),0.601 µM (active),0.416 µM (active),0.163 µM (active),0.208 µM (active),4.02 µM (inactive),3.66 µM (inactive),7.82 µM (inactive),0.698 µM (active)
